From patent publication US20150133436A1, “Bromodomain Inhibitors For Treating Autoimmune And Inflammatory Diseases” (GlaxoSmithKline LLC, priority 2009, published 2015) come the findings set out here.

Structures are written as SMILES.

One data set has as its system TNFα. The data set can be described thus: Lipopolysaccharide (LPS) stimulated whole blood measuring TNFα levels assay. The format is cell-based. Conditions: LPS 200 ng/ml, 24 hours, read-out: pIC50, TNFα levels in LPS stimulated whole blood (converted). Here is the method:
Activation of monocytic cells by agonists of toll-like receptors such as bacterial lipopolysaccharide (LPS) results in production of key inflammatory mediators including TNFα. Such pathways are widely considered to be central to the pathophysiology of a range of auto-immune and inflammatory disorders.
After further incubation for 24 hours at 37 degrees, 140 ul of PBS are added to each well. The plates are sealed, shaken for 10 minutes and then centrifuged (2500 rpm×10 min). 100 ul of the supernatant are removed and TNFα levels assayed by immunoassay (typically by MesoScale Discovery technology) either immediately or following storage at −20 degrees. Dose response curves for each compound was generated from the data and an IC50 value was calculated.

For data set [1], the system named is Balb/c male mice given a lethal dose of LPS. The data set can be described thus: In vivo mouse endotoxemia model. Conditions: 15 mg/kg LPS i.p., compound 10 mg/kg intravenously ninety minutes later; for Numbers of animals surviving at 4 days (summed across multiple repeat experiments): survivors/total. An excerpt: High doses of Endotoxin (bacterial lipopolysaccharide) administered to animals produce a profound shock syndrome including a strong inflammatory response, dysregulation of cardiovascular function, organ failure and ultimately mortality. This pattern of response is very similar to human sepsis and septic shock, where the body's response to a significant bacterial infection can be similarly life threatening.
To test the compounds for use in the invention groups of eight Balb/c male mice were given a lethal dose of 15 mg/kg LPS by intraperitoneal injection. Ninety minutes later, animals were dosed intravenously with vehicle (20% cyclodextrin 1% ethanol in apyrogen water) or compound (10 mg/kg). The survival of animals was monitored at 4 days.

In turn, `Cc1nnc2c(NC(N)=O)cc3cc(-c4ccc(CN5CCCCC5)cc4)ccc3n12` [Example 6, N-{1-methyl-7-[4-(1-piperidinylmethyl)phenyl][1,2,4]triazolo[4,3-a]quinolin-4-yl}urea] returned a melting point greater than 260 °C. Further, the IC50 in the data set on TNFα was no more than 1 µM.

Turning to `COc1cc2c(cc1-c1c(C)noc1C)ncc1nc(C3CCOCC3)n([C@H](C)c3ccccc3)c12` [Example 4, 7-(3,5-dimethyl-4-isoxazolyl)-8-(methoxy)-1-[(1R)-1-phenylethyl]-2-(tetrahydro-2H-pyran-4-yl)-1H-imidazo[4,5-c]quinoline], in data set [1], the “Animals surviving at 4 days, percent” value was “(38%)” and the “Numbers of animals surviving at 4 days (summed across multiple repeat experiments)” value (shortened to “Numbers of animals surviving at 4 days”) was 9/24. The IC50 with TNFα was no more than 1 µM.

For `COc1cc2c(cc1-c1c(C)noc1C)ncc1[nH]c(=O)n([C@H](C)c3ccccn3)c12` [Example 3, 7-(3,5-dimethyl-4-isoxazolyl)-8-(methoxy)-1-[(1R)-1-(2-pyridinyl)ethyl]-1,3-dihydro-2H-imidazo[4,5-c]quinolin-2-one], in data set [1], the “Animals surviving at 4 days, percent” value is listed as “(83%)” and the “Numbers of animals surviving at 4 days” value is 55/66. Also, in the data set on TNFα, the IC50 was no more than 1 µM.

On to `CC(=O)N1c2ccc(-c3ccc(C(=O)O)cc3)cc2[C@H](Nc2ccc(Cl)cc2)C[C@@H]1C` [Example 5, 4-{(2S,4R)-1-acetyl-4-[(4-chlorophenyl)amino]-2-methyl-1,2,3,4-tetrahydro-6-quinolinyl}benzoic acid], for which, in data set [1], the “Animals surviving at 4 days, percent” value is “(58%)” and the “Numbers of animals surviving at 4 days” value was 14/24. Also, in the data set with TNFα, the IC50 was no more than 1 µM.

`CNCc1ccc(-c2ccc3c(c2)[C@H](NC(=O)OC(C)C)C[C@H](C)N3C(C)=O)cc1` [Example 1, 1-methylethyl ((2S,4R)-1-acetyl-2-methyl-6-{4-[(methylamino)methyl]phenyl}-1,2,3,4-tetrahydro-4-quinolinyl)carbamate]: the IC50 with TNFα was no more than 1 µM.
